# According to patent publication US10167262B2, “Herbicidal substituted 3-arylpyrazoles” (FMC CORPORATION, priority 2014, dated 2019):
# Key:
# Type in all cases: in vivo
# [1] = system: ducksalad (Heteranthera limosa); assay: Test B flooded paddy test, plant response rating 0-100; conditions: Flood, 250 g ai/ha; scale 0 to 100 (0 no effect, 100 complete control); 13 to 15 days
# Source text: (§1) At time of treatment, test pots were flooded to 3 cm above the soil surface, treated by application of test compounds directly to the paddy water, and then maintained at that water depth for the duration of the test. Treated plants and controls were maintained in a greenhouse for 13 to 15 days, after which time all species were compared to controls and visually evaluated. […] A dash (-) response means no test result.
# [2] = system: sedge, umbrella (small-flower umbrella sedge, Cyperus difformis); assay: as above; conditions: Flood, 250 g ai/ha; scale 0 to 100 (0 no effect, 100 complete control); 13 to 15 days
# Source text: as §1
# [3] = system: barnyardgrass (Echinochloa crus-galli); assay: as above; conditions: Flood, 250 g ai/ha; scale 0 to 100 (0 no effect, 100 complete control); 13 to 15 days
# Source text: as §1
# rice (Oryza sativa) = assay: as above; conditions: Flood, 250 g ai/ha; scale 0 to 100 (0 no effect, 100 complete control); 13 to 15 days
# Source text: as §1
# [4] = system: morningglory (Ipomoea spp.); assay: Test A pre-/postemergence greenhouse herbicide test, visual injury rating 0-100
# Summary of the method: (§2)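 Test chemicals in a non-phytotoxic solvent/surfactant blend were sprayed onto loam–sand soil after planting (pre) and onto 2–10 cm seedlings at one to two leaves (post). Greenhouse hold approx. 10 days; injury then judged visually.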
# [5] = system: giant foxtail (Setaria faberii); assay: as above
# Summary of the method: as §2
# [6] = system: barnyardgrass (Echinochloa crus-galli); assay: as above
# Summary of the method: as §2
# [7] = system: wheat (Triticum aestivum); assay: as above
# Summary of the method: as §2
# [8] = system: velvetleaf (Abutilon theophrasti); assay: as above
# Summary of the method: as §2
# [9] = system: large (Lg) crabgrass (Digitaria sanguinalis); assay: as above
# Summary of the method: as §2
# corn (Zea mays) = assay: as above
# Summary of the method: as §2
# [10] = system: pigweed (Amaranthus retroflexus); assay: as above
# Summary of the method: as §2
smiles,measurement,setting,value
N=C(c1ccccc1)c1c[nH]nc1-c1cc(F)cc(F)c1 [Compound 67],"Plant response rating, Ducksalad",[1],0
same,"Plant response rating, Sedge, Umbrella",[2],0
same,"Plant response rating, Barnyardgrass",[3],0
same,"Plant response rating, Rice",rice (Oryza sativa),0
same,"Plant response rating (0 to 100 scale), Morningglory","[4]; Postemergence, 1000 g ai/ha",0
same,"Plant response rating (0 to 100 scale), Morningglory","[4]; Preemergence, 1000 g ai/ha",0
same,"Plant response rating (0 to 100 scale), Foxtail, Giant","[5]; Postemergence, 1000 g ai/ha",0
same,"Plant response rating (0 to 100 scale), Foxtail, Giant","[5]; Preemergence, 1000 g ai/ha",0
same,"Plant response rating (0 to 100 scale), Barnyardgrass","[6]; Postemergence, 1000 g ai/ha",0
same,"Plant response rating (0 to 100 scale), Barnyardgrass","[6]; Preemergence, 1000 g ai/ha",0
same,"Plant response rating (0 to 100 scale), Wheat","[7]; Postemergence, 1000 g ai/ha",0
same,"Plant response rating (0 to 100 scale), Wheat","[7]; Preemergence, 1000 g ai/ha",0
same,"Plant response rating (0 to 100 scale), Velvetleaf","[8]; Postemergence, 1000 g ai/ha",90
same,"Plant response rating (0 to 100 scale), Velvetleaf","[8]; Preemergence, 1000 g ai/ha",100
same,"Plant response rating (0 to 100 scale), Crabgrass, Large","[9]; Postemergence, 1000 g ai/ha",0
same,"Plant response rating (0 to 100 scale), Crabgrass, Large","[9]; Preemergence, 1000 g ai/ha",0
same,"Plant response rating (0 to 100 scale), Corn","corn (Zea mays); Postemergence, 1000 g ai/ha",0
same,"Plant response rating (0 to 100 scale), Corn","corn (Zea mays); Preemergence, 1000 g ai/ha",0
same,"Plant response rating (0 to 100 scale), Pigweed","[10]; Postemergence, 1000 g ai/ha",80
same,"Plant response rating (0 to 100 scale), Pigweed","[10]; Preemergence, 1000 g ai/ha",100
O=C(c1ccccc1)c1cn(C(=O)Cc2ccccc2)nc1-c1cc(Cl)cc(Cl)c1 [Compound 4],"Plant response rating, Ducksalad",[1],0
same,"Plant response rating, Sedge, Umbrella",[2],0
same,"Plant response rating, Barnyardgrass",[3],0
same,"Plant response rating, Rice",rice (Oryza sativa),0
same,"Plant response rating (0 to 100 scale), Morningglory","[4]; Postemergence, 125 g ai/ha",0
same,"Plant response rating (0 to 100 scale), Morningglory","[4]; Postemergence, 500 g ai/ha",0
same,"Morningglory plant response rating (0 = no effect, 100 = complete control)","[4]; Preemergence, 125 g ai/ha",0
same,"Plant response rating (0 to 100 scale), Morningglory","[4]; Preemergence, 500 g ai/ha",0
same,"Plant response rating (0 to 100 scale), Foxtail, Giant","[5]; Postemergence, 125 g ai/ha",0
same,"Plant response rating (0 to 100 scale), Foxtail, Giant","[5]; Postemergence, 500 g ai/ha",10
same,"Foxtail, Giant plant response rating (0 = no effect, 100 = complete control)","[5]; Preemergence, 125 g ai/ha",0
same,"Plant response rating (0 to 100 scale), Foxtail, Giant","[5]; Preemergence, 500 g ai/ha",30
same,"Plant response rating (0 to 100 scale), Barnyardgrass","[6]; Postemergence, 125 g ai/ha",0
same,"Plant response rating (0 to 100 scale), Barnyardgrass","[6]; Postemergence, 500 g ai/ha",0
same,"Barnyardgrass plant response rating (0 = no effect, 100 = complete control)","[6]; Preemergence, 125 g ai/ha",0
same,"Plant response rating (0 to 100 scale), Barnyardgrass","[6]; Preemergence, 500 g ai/ha",0
same,"Plant response rating (0 to 100 scale), Wheat","[7]; Postemergence, 125 g ai/ha",0
same,"Plant response rating (0 to 100 scale), Wheat","[7]; Postemergence, 500 g ai/ha",0
same,"Wheat plant response rating (0 = no effect, 100 = complete control)","[7]; Preemergence, 125 g ai/ha",0
same,"Plant response rating (0 to 100 scale), Wheat","[7]; Preemergence, 500 g ai/ha",0
same,"Plant response rating (0 to 100 scale), Velvetleaf","[8]; Postemergence, 125 g ai/ha",80
same,"Plant response rating (0 to 100 scale), Velvetleaf","[8]; Postemergence, 500 g ai/ha",90
same,"Velvetleaf plant response rating (0 = no effect, 100 = complete control)","[8]; Preemergence, 125 g ai/ha",70
same,"Plant response rating (0 to 100 scale), Velvetleaf","[8]; Preemergence, 500 g ai/ha",90
same,"Plant response rating (0 to 100 scale), Crabgrass, Large","[9]; Postemergence, 125 g ai/ha",0
same,"Plant response rating (0 to 100 scale), Crabgrass, Large","[9]; Postemergence, 500 g ai/ha",0
same,"Crabgrass, Large plant response rating (0 = no effect, 100 = complete control)","[9]; Preemergence, 125 g ai/ha",0
same,"Plant response rating (0 to 100 scale), Crabgrass, Large","[9]; Preemergence, 500 g ai/ha",20
same,"Plant response rating (0 to 100 scale), Corn","corn (Zea mays); Postemergence, 125 g ai/ha",0
same,"Plant response rating (0 to 100 scale), Corn","corn (Zea mays); Postemergence, 500 g ai/ha",0
same,"Corn plant response rating (0 = no effect, 100 = complete control)","corn (Zea mays); Preemergence, 125 g ai/ha",0
same,"Plant response rating (0 to 100 scale), Corn","corn (Zea mays); Preemergence, 500 g ai/ha",0
same,"Plant response rating (0 to 100 scale), Pigweed","[10]; Postemergence, 125 g ai/ha",70
same,"Plant response rating (0 to 100 scale), Pigweed","[10]; Postemergence, 500 g ai/ha",80
same,"Pigweed plant response rating (0 = no effect, 100 = complete control)","[10]; Preemergence, 125 g ai/ha",80
same,"Plant response rating (0 to 100 scale), Pigweed","[10]; Preemergence, 500 g ai/ha",90
